Reference: publication PMC9949698, “Visible-Light-Controlled Histone Deacetylase Inhibitors for Targeted Cancer Therapy” (Journal of Medicinal Chemistry, 2023)
Read-outs that look alike come from different tables or passages of the source.

Experiments:
human recombinant HDAC1 [1] = target: T1, human recombinant HDAC1 (Homo sapiens, UniProt Q13547); assay: Fluorogenic assay with human recombinant HDAC1, dark or illumination; format: biochemical; conditions: for IC50: 1 h at room temperature (Table 2)
T1 construct: purchased BPS Bioscience
Method: To study the inhibition of HDAC enzymes by the compounds, we used a fluorogenic assay with human recombinant HDAC1.[32] The enzyme was incubated with an acetylated substrate and each inhibitor for 1 h at room temperature, under either dark or light conditions. We opted for illumination throughout the incubation period to maintain the maximum proportion of cis under light conditions. […] Then, the deacetylated substrate generated a fluorescent coumarin after incubation of the mixture with trypsin at 37 °C for 20 min.
Stock solutions of the compounds were diluted to 1 mM in DMSO and then heated to 60 or 80 °C to obtain solutions with the maximum amount of the trans isomer (dark). […] The 1 mM solutions were then serially diluted with HDAC buffer to 10 times the desired concentration, maintaining DMSO at 10%.
In control wells without the compound, inhibitor, or enzyme, HDAC buffer was added instead. […] Then, 50 μL of the stop solution was added and the plates were incubated at 37 °C for 20 min in the dark. Fluorescence was measured at a λem of 460 nm and a λex of 380 nm. Enzyme activity is expressed as a percentage with respect to the nontreated cells, after subtracting the blank (well with no enzyme and no compound).

HeLa cells = assay: HeLa cell viability, MTS assay, dark or preillumination; format: cell-based; conditions: for IC50: Homo sapiens, HeLa
Method: We then proceeded to evaluate the effect of the compounds in a viability assay against HeLa cells.
HeLa, MCF7, and HT29 cells were maintained in adherent cultures in DMEM supplemented with 10% FBS. KG1 cells were maintained in a suspension culture in IMDM supplemented with 20% FBS.
Stock solutions of the compounds were heated to 60 or 80 °C to obtain solutions with the maximum amount of the trans isomer (dark). […] The solutions were then serially diluted with DMEM to give 20 times the desired final concentration, maintaining DMSO at 10%.
Cells were seeded in 96-well black flat bottom plates with a clear bottom at a density of 5 × 10^3 cells/well (HeLa) or 1 × 10^4 cells/well (MCF7, HT29, and KG1), in a volume of 95 μL.
Viability of HeLa, MCF7, and […] cells was determined with a CellTiter 96 assay (Promega), according to the manufacturer’s instructions. Briefly, 20 μL of CellTiter 96 reagent was added to each well, the plates were incubated at 37 °C for 2 h, and the absorbance at 490 nm was recorded. Viability is expressed as a percentage with respect to the nontreated cells.

[2] = UV–vis spectra and optimal isomerization wavelengths; format: physicochemical
Method: Ultraviolet–visible (UV–vis) spectra were recorded using a Tecan Spark 20M Multimode Microplate reader. Samples (200 μL of compound solution/well) were prepared at […] in DMSO. Samples were measured between 300 and 800 nm with 2 nm fixed intervals in 96-well transparent plates. Illumination at different wavelengths was performed for 2 min using 96-well LED array plates (LEDA Teleopto) placed below the samples. […] Potencies were measured using a Thorlabs PM100D power energy meter connected with a standard photodiode power sensor (S120VC).

[3] = E/Z composition under light or temperature conditions by HPLC; format: physicochemical; conditions: HPLC at isosbestic point (310–338 nm)
human recombinant HDAC1 [4] = target: T1, human recombinant HDAC1; assay: Fluorogenic assay with human recombinant HDAC1, dark or illumination; format: biochemical; conditions: enzyme incubated 6 h with or without preillumination, activity assessed every hour
[5] = cited from earlier work
[6] = UV–vis at 25–50 μM in DMSO, Teleopto plates (Table 1)

T1 sequence (Q13547 whole entry): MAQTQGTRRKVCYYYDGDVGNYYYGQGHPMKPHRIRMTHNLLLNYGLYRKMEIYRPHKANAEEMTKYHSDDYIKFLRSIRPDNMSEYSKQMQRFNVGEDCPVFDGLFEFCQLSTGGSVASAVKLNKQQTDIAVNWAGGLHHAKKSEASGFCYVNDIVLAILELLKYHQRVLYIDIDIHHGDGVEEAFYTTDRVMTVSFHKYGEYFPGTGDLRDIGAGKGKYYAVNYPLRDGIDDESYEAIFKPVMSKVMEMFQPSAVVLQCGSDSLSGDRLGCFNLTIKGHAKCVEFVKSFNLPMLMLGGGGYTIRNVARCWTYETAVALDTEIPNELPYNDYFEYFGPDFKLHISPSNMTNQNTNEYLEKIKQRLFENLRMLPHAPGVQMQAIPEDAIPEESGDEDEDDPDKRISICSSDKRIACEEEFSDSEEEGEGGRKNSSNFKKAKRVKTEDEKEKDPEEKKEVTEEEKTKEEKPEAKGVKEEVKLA

- IC50(dark)/IC50(light) (human recombinant HDAC1 [1]; dark vs 365 or 380 nm (Table 2), fold): 18
- IC50 (human recombinant HDAC1 [1]; dark, read-out: IC50 dark): 0.96 µM
- IC50 (human recombinant HDAC1 [1]; illumination 365 or 380 nm, read-out: IC50 light): 0.052 µM
- IC50 (HeLa cells; dark, 48 h, read-out: IC50 dark (concentration that reduces cell viability by half)): ~12 µM
- IC50 (HeLa cells; preillumination 380 nm, 48 h, read-out: IC50 light (concentration that reduces cell viability by half)): ~12 µM
- IC50 (HeLa cells; supplementary CSV, read-out: HeLa MTS IC50 dark): 12 µM
- IC50 (HeLa cells; supplementary CSV, read-out: HeLa MTS IC50 light): 12 µM
- IC50(dark)/IC50(light) (HeLa cells; Table 5): ≈1
- λcis (optimal wavelength trans to cis) [2, 6]: 380 nm
- λtrans (optimal wavelength cis to trans) [2, 6]: 550 nm
- λmax trans ([2]; UV–vis spectra at 25–50 μM in DMSO (Table 1)): 378 nm
- % cis at λcis ([3]; 100 μM in DMSO after illumination with λcis (Table 1)): 78%
- % trans at λtrans ([3]; 100 μM in DMSO after illumination with λtrans (Table 1)): 85%
- difference in activity between dark and illuminated conditions over incubation time (human recombinant HDAC1 [4]): maintained over time
Compound: COc1ccc(/N=N/c2ccc(/C=C/C(=O)NO)cc2)cc1 [Compound 1, reference compound]
- wavelength of isomerization [5]: 365 nm
- t1/2 (relaxation) ([5]; room temperature in buffer): 4.2 h
